PMC12340973, “Discovery of First-in-Class Inhibitors Targeting a Pathogen-Associated Aminoglycoside-Resistance 16S rRNA Methyltransferase” (ACS Infectious Diseases, 2025)

Assays:
Type in all cases: biochemical
[1] = biological target: T1, NpmA (16S rRNA (m1A1408) methyltransferase) (Escherichia coli, UniProt A8C927); assay: in vitro […] subunit [3H]-SAM methylation assay at fixed […]; conditions: read-out: % activity at 1 mM
T1 construct: recombinant NpmA

[2] = biological target: T1, NpmA (16S rRNA (m1A1408) methyltransferase); assay: in vitro […] subunit [3H]-SAM methylation filter-binding assay, dose-response
[3] = biological target: T1, NpmA (16S rRNA (m1A1408) methyltransferase); assay: in vitro […] subunit [3H]-SAM methylation filter-binding assay, dose-response; resynthesized and retested

T1 sequence (A8C927 whole entry): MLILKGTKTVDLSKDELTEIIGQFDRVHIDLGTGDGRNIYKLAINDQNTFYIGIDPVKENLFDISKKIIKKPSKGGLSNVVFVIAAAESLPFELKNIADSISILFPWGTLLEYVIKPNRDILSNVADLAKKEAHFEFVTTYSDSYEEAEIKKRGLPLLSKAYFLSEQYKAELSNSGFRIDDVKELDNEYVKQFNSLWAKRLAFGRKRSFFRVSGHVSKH

SMILES	activity at 1000 µM [1] [%]	IC50 [2] [µM]	other results
COc1cc(C2C(C(=O)OCCc3ccccc3)=C(C)NC3=C2C(=O)CC(c2ccccc2)C3)cc(Br)c1O (stereo not drawn) [compound 20]	< 25	–	–
Cc1ccc(-c2cc(C(=O)N3CCC(c4cc(O)ncn4)CC3)[nH]n2)cc1 [compound 10]	< 25	–	–
Cc1ccc(NC(=O)C(=Cc2cccc([N+](=O)[O-])c2)NC(=O)c2ccccc2I)cc1 [compound 45]	–	99	–
CC(=O)c1ccc(NC(=O)/C(=C/c2cccc([N+](=O)[O-])c2)NC(=O)c2ccccc2Cl)cc1 [compound 23, (Z)-N-(3-((4-Acetylphenyl)-amino)-1-(3-nitrophenyl)-3-oxoprop-1-en-2-yl)-2-chlorobenz-amide]	–	–	IC50 [3]: 76 µM
CC(=O)c1ccc(NC(=O)/C(=C/c2cccc([N+](=O)[O-])c2)NC(=O)c2ccc(C)cc2)cc1 [compound 3]	< 25	–	–
Cc1ccc(NC(=O)C(=Cc2cccc([N+](=O)[O-])c2)NC(=O)c2ccc(Cl)cc2Cl)cc1 [compound 47]	–	68	–
